Key:
[1] = Subconjunctival injection into a patient suffering from retinitis pigmentosa; format: in vivo; conditions: 1 mg in poly(lactide-co-glycolide) microsphere suspension, injected subconjunctivally
Experimental: A dose of tazarotene (1 mg) contained in the poly(lactide-co-glycolide) microsphere suspension of Example containing 1 is injected subconjunctivally into a patient suffering from retinitis pigmentosa.
A dose of all-trans retinyl palmitate (1 mg) contained in the poly(lactide-co-glycolide) microsphere suspension of Example containing 1 is injected subconjunctivally into a patient suffering from retinitis pigmentosa.

[2] = Subconjunctival injection into a patient suffering from proliferative vitreal retinopathy; format: in vivo; conditions: 1 mg in poly(lactide-co-glycolide) microsphere suspension, injected subconjunctivally
Experimental: A dose of tazarotene (1 mg) contained in the poly(lactide-co-glycolide) microsphere suspension of Example containing 1 is injected subconjunctivally into a patient suffering from proliferative vitreal retinopathy.

RARγ = target: T1, RARγ (Homo sapiens, UniProt P13631); test: RARγ receptor binding assay, competition with [3H] retinoic acid; conditions: Baculovirus-expressed receptor; Kd from IC50 by Cheng-Prussof; mean and standard deviation; read-out: receptor affinity (KD), RARγ
T1 construct: made in house
T1 sequence (P13631 1-454): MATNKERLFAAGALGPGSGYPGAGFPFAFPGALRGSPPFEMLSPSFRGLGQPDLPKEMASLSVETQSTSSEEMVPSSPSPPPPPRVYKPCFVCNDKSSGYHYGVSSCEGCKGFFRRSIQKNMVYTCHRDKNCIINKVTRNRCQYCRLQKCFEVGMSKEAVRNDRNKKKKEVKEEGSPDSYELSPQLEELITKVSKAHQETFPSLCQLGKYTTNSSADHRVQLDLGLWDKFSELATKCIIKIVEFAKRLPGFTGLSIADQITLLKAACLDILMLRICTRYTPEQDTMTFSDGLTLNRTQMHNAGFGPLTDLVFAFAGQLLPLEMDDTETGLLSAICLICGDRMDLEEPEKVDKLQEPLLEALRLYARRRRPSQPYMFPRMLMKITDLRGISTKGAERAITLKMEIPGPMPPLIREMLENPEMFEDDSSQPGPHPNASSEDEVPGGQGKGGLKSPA
Experimental: (§1) The binding of tazarotene and tazarotenic acid to the retinoic acid receptor (RAR) family receptors (RARα, RARβ, RARγ) was determined as follows.
(§2) All binding assays were performed in a similar fashion. All three receptor subtypes were derived from the expressed receptor type (RARα, RARβ, and RARγ) expressed in Baculovirus. Stock solutions of the compounds were prepared as 10 mM ethanol solutions and serial dilutions carried out into 1:1 DMSO; ethanol. Assay buffers consisted of the following for all six receptor assays: 8% glycerol, 120 mM KCl, 8 mM Tris, 5 mM CHAPS 4 mM DTT and 0.24 mM PMSF, pH-7.4 @ room temperature.
(§3) All receptor binding assays were performed in the same manner. […] The amount of receptor-ligand complex was determined by liquid scintillation counting of hydroxyapitite pellet.
(§4) After correcting for non-specific binding, IC50 values were determined. […] The IC50 value was determined graphically from a loglogit plot of the data. The […] were determined by application of the Cheng-Prussof equation to the IC50 values, the labeled ligand concentration and the Kd of the labeled ligand.
(§5) The results of ligand binding assay are expressed in Kd numbers. […] Binding data for tazarotenic acid is expressed as the mean and standard deviation. […]

[3] = Ocular disposition of tazarotene and tazarotenic acid after intraocular and subconjunctival administration of tazarotene; format: in vivo; conditions: albino rabbits
Experimental: General disposition of tazarotene and tazarotenic acid resulting from intraocular and subconjunctival administration of tazarotene was assessed. Albino rabbits were dosed via intraocular injection with 1.25 μg of tazarotene. Injection was made mid-vitreous. After dosing the vitreous, retina and aqueous humor concentrations of tazarotene and tazarotenic acid were determined at 0.5, 1, 2, 4, 8, 12 and 24 hours post dosing.
Tazarotene was also dosed in the subconjunctival space. Three dosage forms were evaluated: the tazarotene aqueous suspension described in Example 2 (50 μl of the solution, 1 mg tazarotene), tazarotene olive oil solution described in Example 3 (50 μl mg of the solution, 1 mg of tazarotene), and the tazarotene poly(lactide-co-glycolide) microsphere suspension described in Example 1. After dosing, the vitreous, retina and aqueous humor concentrations of tazarotene and tazarotenic acid were determined at 2, 8, 24, 48, 96, 168 and 336 hours post dosing (see FIGS. 1-8). […] In Table 1 the mean vitreous concentration refers to average vitreous concentration observed from zero to one hundred sixty-eight hours post dosing. The mean vitreous concentration at each time point was used to calculate the overall vitreous mean concentration over the 168 hours for a given route of administration and dosage form. […]

RARβ = target: T2, RARβ (Homo sapiens, UniProt P10826); test: RARβ receptor binding assay, competition with [3H] retinoic acid; conditions: Baculovirus-expressed receptor; Kd from IC50 by Cheng-Prussof; mean and standard deviation; read-out: receptor affinity (KD), RARβ
T2 construct: made in house
T2 sequence (P10826 1-455): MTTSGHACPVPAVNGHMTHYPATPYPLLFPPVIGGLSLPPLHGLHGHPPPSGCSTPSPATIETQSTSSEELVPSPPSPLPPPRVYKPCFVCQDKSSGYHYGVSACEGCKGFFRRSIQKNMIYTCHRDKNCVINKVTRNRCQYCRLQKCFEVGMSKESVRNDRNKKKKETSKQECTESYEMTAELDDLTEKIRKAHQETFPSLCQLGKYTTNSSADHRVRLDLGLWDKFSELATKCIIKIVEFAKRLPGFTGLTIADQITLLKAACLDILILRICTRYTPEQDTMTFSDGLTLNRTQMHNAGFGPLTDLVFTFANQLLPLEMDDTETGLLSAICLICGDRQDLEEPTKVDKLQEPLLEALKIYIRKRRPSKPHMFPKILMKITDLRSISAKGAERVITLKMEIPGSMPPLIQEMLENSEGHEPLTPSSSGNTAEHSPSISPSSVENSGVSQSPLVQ
Experimental: as §1, §2, §3, §4, §5

RARα = target: T3, RARα (Homo sapiens, UniProt P10276); test: RARα receptor binding assay, competition with [3H] retinoic acid; conditions: Baculovirus-expressed receptor; Kd from IC50 by Cheng-Prussof; mean and standard deviation; read-out: receptor affinity (KD), RARα
T3 construct: made in house
T3 sequence (P10276 1-462): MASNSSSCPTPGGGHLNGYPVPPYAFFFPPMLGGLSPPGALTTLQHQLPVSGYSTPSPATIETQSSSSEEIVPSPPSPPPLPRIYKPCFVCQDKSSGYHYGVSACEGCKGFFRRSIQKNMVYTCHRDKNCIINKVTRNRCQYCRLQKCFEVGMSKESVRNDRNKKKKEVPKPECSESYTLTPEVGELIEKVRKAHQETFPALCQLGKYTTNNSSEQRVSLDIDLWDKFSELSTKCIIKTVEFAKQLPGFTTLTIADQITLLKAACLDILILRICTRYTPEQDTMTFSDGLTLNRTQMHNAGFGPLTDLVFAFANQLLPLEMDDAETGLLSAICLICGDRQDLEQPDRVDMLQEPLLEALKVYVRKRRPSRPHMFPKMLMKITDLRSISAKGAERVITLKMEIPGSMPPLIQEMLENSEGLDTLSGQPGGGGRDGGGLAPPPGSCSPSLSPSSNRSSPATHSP
Experimental: All binding assays were performed in a similar fashion.
All receptor binding assays were performed in the same manner. […] Incubations were carried out at 4° C. until equilibrium was achieved. Non-specific binding was defined as that binding remaining in the presence of 1000 nM of the appropriate unlabeled retinoic acid isomer. […] The mixture was vortexed and incubated for 10 minutes at 4° C., centrifuged and the supernatant removed. The hydroxyapitite was washed three more times with the appropriate wash buffer. The receptor-ligand complex was adsorbed by the hydroxyapitite. The amount of receptor-ligand complex was determined by liquid scintillation counting of hydroxyapitite pellet.
as §4
The results of ligand binding assay are expressed in Kd numbers.

Row | Kd (RARγ) | maximal vitreous concentration of tazarotenic acid obtainable after direct intraocular implantation ([3]; intraocular tazarotene) | period for which concentrations were maintained at low effective levels ([3]; subconjunctival dosing of tazarotene, ocular tissues) | Kd (RARβ) | Kd (RARα) | SMILES | effect on vision, retinitis pigmentosa [1] | effect on traction retinal detachment, proliferative vitreal retinopathy [2]
1 | – | – | – | – | – | CCCCCCCCCCCCCCCC(=O)OC/C=C(C)/C=C/C=C(C)/C=C/C1=C(C)CCCC1(C)C [all-trans retinyl palmitate] | Maintenance of vision or a slowing of the progression of vision loss is observed | –
2 | – | – | – | – | – | CCOC(=O)c1ccc(C#Cc2ccc3c(c2)C(C)(C)CCS3)nc1 [tazarotene, ethyl 6-[(4,4-dimethylthiochroman-6-yl)ethynyl]nicotinate] | Maintenance of vision or a slowing of the progression of vision loss is observed | Traction retinal detachment is prevented or the rate of traction retinal detachment is reduced
3 | 353 ± 37 nM | 10 ng/mL | 336 h | 164 ± 48 nM | 901 ± 123 nM | CC1(C)CCSc2ccc(C#Cc3ccc(C(=O)O)cn3)cc21 [tazarotenic acid, 4,4-dimethyl-6-[2′-(5″-carboxy-2″-pyridyl)-ethynyl]-thiochroman] | – | –
